Structures can show the parent of a compound that is named as a salt.
Species: Rattus norvegicus
Experiment: Open TG-GATES - Regimen: Single
Format: toxicity, organism-based, Sprague-Dawley
Design: regimen Single, gender Male, age 6 weeks
Settings: in vivo, ip, 240 mg/kg, route intraperitoneal injection, dose level Middle; for APTT / Bas / Eos / Fbg / Hb / Ht / Lym / MCH / MCHC / MCV / Mono / Neu / PT / Plat / RBC / Ret / WBC: tissue Blood; for KIDNEY_L / KIDNEY_R / KIDNEY_TOTAL: tissue Kidney; for LIVER: tissue Liver; for A/G / ALP / ALT / AST / BUN / CRE / Ca / Cl / DBIL / GLC / IP / K / LDH / Na / PL / RALB / TBIL / TC / TG / TP / gamma-GTP: tissue Plasma

Structure (SMILES): CCOC(=O)/C=C\C(=O)OCC [DIETHYL MALEATE]
- TERMINAL_BW (3 h): 196.7 g
- APTT (3 h): 16 s
- Bas (3 h): 0%
- Eos (3 h): 1%
- Fbg (3 h): 206.2 mg/dL
- Hb (3 h): 13.4 g/dL
- Ht (3 h): 40.3%
- Lym (3 h): 72%
- MCH (3 h): 21.3 pg
- MCHC (3 h): 33.3%
- MCV (3 h): 63.8 fL
- Mono (3 h): 5.6%
- Neu (3 h): 21.6%
- PT (3 h): 12.4 s
- Plat (3 h): 124.8 x10_4/uL
- RBC (3 h): 631.8 x10_4/ul
- Ret (3 h): 9.7%
- WBC (3 h): 90.3 x10_2/uL
- KIDNEY_L (3 h): 0.9 g
- KIDNEY_R (3 h): 0.9 g
- KIDNEY_TOTAL (3 h): 1.8 g
- LIVER (3 h): 8.5 g
- A/G (3 h): 2.1
- ALP (3 h): 700.6 IU/L
- ALT (3 h): 35.8 IU/L
- AST (3 h): 80.6 IU/L
- BUN (3 h): 17 mg/dL
- CRE (3 h): 0.5 mg/dL
- Ca (3 h): 10.9 mg/dL
- Cl (3 h): 105.4 meq/L
- DBIL (3 h): 0.02 mg/dL
- GLC (3 h): 191.8 mg/dL
- IP (3 h): 10.9 mg/dL
- K (3 h): 5.2 meq/L
- LDH (3 h): 147 IU/L
- Na (3 h): 138.4 meq/L
- PL (3 h): 126 mg/dL
- RALB (3 h): 3.6 g/dL
- TBIL (3 h): 0.4 mg/dL
- TC (3 h): 71.8 mg/dL
- TG (3 h): 30.4 mg/dL
- TP (3 h): 5.3 g/dL
- gamma-GTP (3 h): 1.2 IU/L
- TERMINAL_BW (6 h): 199.7 g
- APTT (6 h): 16.1 s
- Bas (6 h): 0%
- Eos (6 h): 0.8%
- Fbg (6 h): 210.2 mg/dL
- Hb (6 h): 13 g/dL
- Ht (6 h): 38.9%
- Lym (6 h): 71.2%
- MCH (6 h): 22 pg
- MCHC (6 h): 33.3%
- MCV (6 h): 66 fL
- Mono (6 h): 6.8%
- Neu (6 h): 21.4%
- PT (6 h): 12.2 s
- Plat (6 h): 121.8 x10_4/uL
- RBC (6 h): 589.4 x10_4/ul
- Ret (6 h): 10.6%
- WBC (6 h): 107.7 x10_2/uL
- KIDNEY_L (6 h): 0.9 g
- KIDNEY_R (6 h): 0.9 g
- KIDNEY_TOTAL (6 h): 1.9 g
- LIVER (6 h): 8.6 g
- A/G (6 h): 1.9
- ALP (6 h): 729.6 IU/L
- ALT (6 h): 35 IU/L
- AST (6 h): 69.8 IU/L
- BUN (6 h): 14.8 mg/dL
- CRE (6 h): 0.5 mg/dL
- Ca (6 h): 10.7 mg/dL
- Cl (6 h): 106.6 meq/L
- DBIL (6 h): 0.004 mg/dL
- GLC (6 h): 192.6 mg/dL
- IP (6 h): 9.8 mg/dL
- K (6 h): 5 meq/L
- LDH (6 h): 112.8 IU/L
- Na (6 h): 139.2 meq/L
- PL (6 h): 131 mg/dL
- RALB (6 h): 3.5 g/dL
- TBIL (6 h): 0.4 mg/dL
- TC (6 h): 82.8 mg/dL
- TG (6 h): 39.6 mg/dL
- TP (6 h): 5.3 g/dL
- gamma-GTP (6 h): 1.4 IU/L
- TERMINAL_BW (9 h): 195.9 g
- APTT (9 h): 17 s
- Bas (9 h): 0%
- Eos (9 h): 1%
- Fbg (9 h): 209 mg/dL
- Hb (9 h): 13 g/dL
- Ht (9 h): 38.5%
- Lym (9 h): 74.8%
- MCH (9 h): 21.8 pg
- MCHC (9 h): 33.6%
- MCV (9 h): 64.7 fL
- Mono (9 h): 5.4%
- Neu (9 h): 19%
- PT (9 h): 12.2 s
- Plat (9 h): 115.5 x10_4/uL
- RBC (9 h): 595 x10_4/ul
- Ret (9 h): 9.6%
- WBC (9 h): 90.7 x10_2/uL
- KIDNEY_L (9 h): 0.9 g
- KIDNEY_R (9 h): 0.9 g
- KIDNEY_TOTAL (9 h): 1.7 g
- LIVER (9 h): 7.8 g
- A/G (9 h): 2.2
- ALP (9 h): 849.2 IU/L
- ALT (9 h): 34.6 IU/L
- AST (9 h): 71.8 IU/L
- BUN (9 h): 12.2 mg/dL
- CRE (9 h): 0.4 mg/dL
- Ca (9 h): 10.7 mg/dL
- Cl (9 h): 108.2 meq/L
- DBIL (9 h): 0.016 mg/dL
- GLC (9 h): 188.4 mg/dL
- IP (9 h): 9.7 mg/dL
- K (9 h): 4.7 meq/L
- LDH (9 h): 77.6 IU/L
- Na (9 h): 139.4 meq/L
- PL (9 h): 120.4 mg/dL
- RALB (9 h): 3.5 g/dL
- TBIL (9 h): 0.4 mg/dL
- TC (9 h): 67.6 mg/dL
- TG (9 h): 33.4 mg/dL
- TP (9 h): 5.2 g/dL
- gamma-GTP (9 h): 1.2 IU/L
- TERMINAL_BW (24 h): 210.6 g
- APTT (24 h): 15.9 s
- Bas (24 h): 0%
- Eos (24 h): 1%
- Fbg (24 h): 218.4 mg/dL
- Hb (24 h): 13.5 g/dL
- Ht (24 h): 40%
- Lym (24 h): 81.2%
- MCH (24 h): 21.9 pg
- MCHC (24 h): 33.6%
- MCV (24 h): 65 fL
- Mono (24 h): 4%
- Neu (24 h): 14%
- PT (24 h): 11.5 s
- Plat (24 h): 114.2 x10_4/uL
- RBC (24 h): 615.6 x10_4/ul
- Ret (24 h): 9.9%
- WBC (24 h): 113 x10_2/uL
- KIDNEY_L (24 h): 0.9 g
- KIDNEY_R (24 h): 0.9 g
- KIDNEY_TOTAL (24 h): 1.9 g
- LIVER (24 h): 10.2 g
- A/G (24 h): 2.3
- ALP (24 h): 871.4 IU/L
- ALT (24 h): 39.8 IU/L
- AST (24 h): 68.2 IU/L
- BUN (24 h): 17.6 mg/dL
- CRE (24 h): 0.5 mg/dL
- Ca (24 h): 10.8 mg/dL
- Cl (24 h): 106.2 meq/L
- DBIL (24 h): 0.02 mg/dL
- GLC (24 h): 198 mg/dL
- IP (24 h): 8.2 mg/dL
- K (24 h): 5.2 meq/L
- LDH (24 h): 125.2 IU/L
- Na (24 h): 139 meq/L
- PL (24 h): 145.4 mg/dL
- RALB (24 h): 3.8 g/dL
- TBIL (24 h): 0.4 mg/dL
- TC (24 h): 78 mg/dL
- TG (24 h): 99.2 mg/dL
- TP (24 h): 5.5 g/dL
- gamma-GTP (24 h): 1.8 IU/L
